{"source": "paper PMC12175894", "about": "(Science Advances, 2025)", "key": {"[1]": {"biological_target": "T1, 5-HT1AR (Homo sapiens, UniProt P08908)", "T1 sequence (P08908 1-422)": "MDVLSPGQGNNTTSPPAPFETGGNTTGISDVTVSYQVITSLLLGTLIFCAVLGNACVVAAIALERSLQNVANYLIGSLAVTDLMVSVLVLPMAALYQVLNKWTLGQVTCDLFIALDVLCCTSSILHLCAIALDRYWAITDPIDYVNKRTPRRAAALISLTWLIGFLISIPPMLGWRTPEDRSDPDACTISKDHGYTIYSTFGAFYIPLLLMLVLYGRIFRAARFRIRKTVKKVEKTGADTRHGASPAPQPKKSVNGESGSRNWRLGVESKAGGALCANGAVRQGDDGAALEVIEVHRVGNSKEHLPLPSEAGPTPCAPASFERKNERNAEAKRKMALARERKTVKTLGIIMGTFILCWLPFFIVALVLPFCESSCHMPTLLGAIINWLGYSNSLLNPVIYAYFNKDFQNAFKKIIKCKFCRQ", "test": "GloSensor cAMP assay in HEK293T cells", "type": "cell-based", "parameters": "host or cells: HEK293T, HEK293A, HEK293AΔGs, HEK293AΔGi/o, HEK293AΔARRB1/B2"}, "[2]": {"biological_target": "T1, 5-HT1AR", "test": "GloSensor cAMP assay in HEK293A cells deficient of β-arrestins", "type": "cell-based", "parameters": "host or cells: HEK293T, HEK293A, HEK293AΔGs, HEK293AΔGi/o, HEK293AΔARRB1/B2"}, "[3]": {"biological_target": "T2, 5-HT1AR wildtype (Homo sapiens, UniProt P08908)", "T2 construct": "host or cells: HEK293T, HEK293A, HEK293AΔGs, HEK293AΔGi/o, HEK293AΔARRB1/B2", "T2 sequence (P08908 1-422)": "T1 sequence (P08908 1-422)", "test": "GloSensor inhibition of cAMP accumulation in HEK293AΔGs", "type": "cell-based"}, "[4]": {"test_system": "male C56BL/6 mice", "test": "CFA-induced inflammatory pain model", "type": "in vivo, mouse"}, "[5]": {"biological_target": "T3, 5-HT1AR F112^3.28W (Homo sapiens, UniProt P08908, F112W)", "T3 sequence (P08908 1-422 F112W)": "T1 sequence (P08908 1-422) with F112W", "test": "Radioligand competition, displacement of [3H]WAY100635", "type": "binding"}, "[6]": {"biological_target": "T4, 5-HT1AR Q97^2.65A (Homo sapiens, UniProt P08908, Q97A)", "T4 sequence (P08908 1-422 Q97A)": "T1 sequence (P08908 1-422) with Q97A", "test": "GloSensor cAMP accumulation in HEK293AΔGi/o", "type": "cell-based", "details": "read-out: Emax [% ± SEM], cAMP accumulation"}, "[7]": {"biological_target": "T4, 5-HT1AR Q97^2.65A", "test": "GloSensor inhibition of cAMP accumulation in HEK293AΔGs", "type": "cell-based", "details": "for Emax: read-out: Emax [% ± SEM], inhibition of cAMP accumulation"}, "[8]": {"biological_target": "T3, 5-HT1AR F112^3.28W", "test": "GloSensor inhibition of cAMP accumulation in HEK293AΔGs", "type": "cell-based", "details": "for Emax: read-out: Emax [% ± SEM], inhibition of cAMP accumulation"}, "[9]": {"biological_target": "T3, 5-HT1AR F112^3.28W", "test": "β-arrestin 2 recruitment, enhanced bystander BRET in HEK293T with GRK2", "details": "HEK-293T, read-out: Emax [% ± SEM], β-arrestin 2 recruitment"}, "[10]": {"test_system": "male C56BL/6 mice", "test": "Accelerating rotarod", "type": "in vivo, mouse"}, "[11]": {"biological_target": "T1, 5-HT1AR", "test": "BRET-based cAMP assay (CAMYEL biosensor) in CHO-K1 cells", "type": "cell-based"}, "[12]": {"test_system": "male C56BL/6 mice", "test": "Hargreaves test", "type": "in vivo, mouse", "details": "for response latency, Hargreaves: 10 mg/kg i.p."}}, "note": "Positions count from the first letter of the chain named. Like-named read-outs stand apart in the source and are kept apart here."}
{"smiles": "COc1ccccc1OCCNCCCOc1ccc2c(c1)NC(=O)CO2", "note": "[ST171]", "values": [{"measurement": "EC50", "setting": "[1]; HEK293T, GloSensor; read-out: EC50 left [nM±SEM], inhibition of cAMP accumulation", "result": "0.9 ± 0.2", "unit": "nM"}, {"measurement": "Emax", "setting": "[1]; HEK-293T, read-out: Emax [%±SEM], inhibition of cAMP accumulation", "result": "100 ± 3", "unit": "%"}, {"measurement": "Emax", "setting": "[2]; HEK293-A, read-out: Emax [%±SEM], inhibition of cAMP accumulation", "result": 60, "unit": "%"}, {"measurement": "EC50", "setting": "[2]; HEK Δβ-arrestin, GloSensor; read-out: EC50 left [nM±SEM], inhibition of cAMP accumulation", "result": "3.5 ± 1", "unit": "nM"}, {"measurement": "EC50", "setting": "[3]; HEK293AΔGs, wildtype, read-out: EC50 [nM ± SEM], inhibition of cAMP accumulation", "result": "5.3 ± 0.8", "unit": "nM"}, {"measurement": "Emax [% ± SEM], inhibition of cAMP accumulation", "setting": "[3]; HEK293AΔGs, wildtype, relative to serotonin", "result": "74 ± 3", "unit": "%"}, {"measurement": "Emax", "setting": "[3]; read-out: Emax [% ± SEM], inhibition of cAMP accumulation, HEK293AΔGs, wildtype, relative to serotonin", "result": 73, "unit": "%"}, {"measurement": "mechanical thresholds of the injured hind paw, CFA model", "setting": "[4]; 10 mg/kg intraperitoneal", "result": "significantly increased the mechanical thresholds"}, {"measurement": "Ki", "setting": "[5]; 5-HT1AR F112W, HEK 293T membranes, read-out: Ki [nM ± SEM]", "result": 0.16, "unit": "nM"}, {"measurement": "Emax", "setting": "[6]", "result": "< 5", "unit": "%"}, {"measurement": "EC50", "setting": "[7]; HEK293AΔGs, Q97A, read-out: EC50 [nM ± SEM], inhibition of cAMP accumulation", "result": "8 ± 0.9", "unit": "nM"}, {"measurement": "Emax", "setting": "[7]", "result": "79 ± 6", "unit": "%"}, {"measurement": "EC50", "setting": "[8]; HEK293AΔGs, F112W, read-out: EC50 [nM ± SEM], inhibition of cAMP accumulation", "result": "2.2 ± 0.3", "unit": "nM"}, {"measurement": "Emax", "setting": "[8]", "result": "69 ± 8", "unit": "%"}, {"measurement": "Emax", "setting": "[9]", "result": "< 5", "unit": "%"}, {"measurement": "sedative effects, accelerating rotarod", "setting": "[10]; 10 mg/kg", "result": "did not differ from control mice injected with vehicle"}, {"measurement": "sedative effects, accelerating rotarod", "setting": "[10]; 15 mg/kg", "result": "presumptive sedative effect"}, {"measurement": "Emax", "setting": "[11]; CHO-K1, CAMYEL, PTX addition; read-out: Emax, cAMP effect in the presence of PTX", "result": "< 5", "unit": "%"}, {"measurement": "Emax", "setting": "[11]; CHO-K1, read-out: Emax [%±SEM], inhibition of cAMP accumulation", "result": "87 ± 1", "unit": "%"}, {"measurement": "EC50", "setting": "[11]; CHOK1, CAMYEL, wildtype; read-out: EC50 left [nM±SEM], inhibition of cAMP accumulation", "result": "0.88 ± 0.3", "unit": "nM"}, {"measurement": "response latency, Hargreaves", "setting": "[12]", "result": "antinociceptive"}, {"measurement": "antinociception, Hargreaves, lower doses", "setting": "[12]; 1 and 5 mg/kg", "result": "not as antinociceptive as the 10 mg/kg dose"}]}
{"smiles": "Cc1ccc(CNCC2(F)CCN(C(=O)c3ccc(F)c(Cl)c3)CC2)nc1", "note": "[befiradol, reference compound]", "values": [{"measurement": "Esat [%±SEM]", "setting": "[1]; HEK293T, GloSensor", "result": "71 ± 6", "unit": "%"}, {"measurement": "Emax", "setting": "[1]; HEK-293T; read-out: Emax [%±SEM], inhibition of cAMP accumulation", "result": "111 ± 6", "unit": "%"}, {"measurement": "Emax", "setting": "[2]; HEK293-A; read-out: Emax [%±SEM], inhibition of cAMP accumulation", "result": "89 ± 4", "unit": "%"}, {"measurement": "Esat [%±SEM]", "setting": "[2]; HEK Δβ-arrestin, GloSensor", "result": "73 ± 5", "unit": "%"}, {"measurement": "Emax", "setting": "[3]; read-out: Emax [% ± SEM], inhibition of cAMP accumulation", "result": "87 ± 3", "unit": "%"}, {"measurement": "mechanical sensitivity, CFA model", "setting": "[4]; nonsedating dose 1 mg/kg", "result": "reduced the mechanical sensitivity"}, {"measurement": "decrease in the binding affinity upon mutation of F112^3.28 to tryptophan", "setting": "[5]; F112W vs WT", "result": 16, "unit": "fold"}, {"measurement": "Emax", "setting": "[6]", "result": "60 ± 2", "unit": "%"}, {"measurement": "Emax", "setting": "[7]", "result": "91 ± 7", "unit": "%"}, {"measurement": "Emax", "setting": "[8]", "result": "95 ± 5", "unit": "%"}, {"measurement": "Emax", "setting": "[9]", "result": "86 ± 3", "unit": "%"}, {"measurement": "sedative effects, accelerating rotarod", "setting": "[10]; all doses >1 mg/kg", "result": "significantly reduced the ability of the mouse to continue on the rotarod"}, {"measurement": "Emax", "setting": "[11]; CHO-K1; read-out: Emax [%±SEM], inhibition of cAMP accumulation", "result": "91 ± 3", "unit": "%"}, {"measurement": "Esat [%±SEM], efficacy at saturating ligand concentrations", "setting": "[11]; CHOK1, CAMYEL; relative to serotonin maximum inhibition", "result": "65 ± 4", "unit": "%"}, {"measurement": "response latency, Hargreaves", "setting": "[12]", "result": "antinociceptive"}]}
